# Laboratory results published in patent publication US20120021476A1, “Trace Element Solution For Biogas Methods” (AGRAFERM TECHNOLOGIES AG, priority 2007, published 2012).
# Read-outs that look alike come from different tables or passages of the source. Residues, ends and D or L forms follow the SMILES beside them.
# Key:
# [1] = cited from earlier work
# [2] = cited from earlier work; remark: listed apart in the source
# [3] = cited from earlier work; remark: listed apart in the source
# [4] = cited from earlier work; remark: listed apart in the source
# [5] = cited from earlier work; remark: listed apart in the source
# [6] = cited from earlier work; remark: listed apart in the source
# [7] = cited from earlier work; remark: listed apart in the source
# [8] = cited from earlier work; remark: listed apart in the source
# [9] = Concentrations of the trace elements in the fermentation residue with different complexing agents; format: physicochemical
# Text: In Table 1 the trace element solution according to the invention contains the complexing agent in a stoichiometric amount of 60% EDTA and 60% of a phosphoric acid mixture relative to the overall amount of trace elements, which is composed of identical molar amounts of pyrophosphoric acid (H4P2O7), polyphosphoric acid (H6P4O13), metaphosphoric acid (H4P4O12), hypophosphoric Acid (H3PO2) and phosphorus acid (phosphonic acid) (H3PO3).
# [10] = as above; format: physicochemical; remark: listed apart in the source
# [11] = test system: aromatic amino acid synthesis; details: cited from earlier work
# [12] = cited from earlier work; remark: listed apart in the source
# [13] = equimolar EDTA, neutral pH
# Text: If instead of EDTA, complexing agents are used which form complexes of two or several ligands of the complexing agent per metal atom, then a correspondingly multiple (double, multiple) molar amount of the relevant ligands must be used in order to complex the trace elements in the solution.
# [14] = cited from earlier work; remark: listed apart in the source
# [15] = 100 × times metal versus Simple, 50% NTA
# [16] = column after 50% NTA and citrate (500%), not the invention
compound,measurement,setting,value
"O=C(O)c1ccccc1O [(C6H4)(OH)(COOH), Salicylic acid]",complexing of Cu^2+ in words,[1],very good
same,complexing of Co^2+ in words,[2],very good
same,complexing of Zn^2+ in words,[3],good
same,complexing of Ni^2+ in words,[4],very good
same,complexing of Mn^2+ in words,[5],very good
same,complexing of Fe^3+ in words,[6],excellent
"O=C(O)C(=O)O [(COOH)2, Oxalic acid]",complexing of Cu^2+ in words,[1],moderate
same,complexing of Co^2+ in words,[2],moderate
same,complexing of Ca^2+ in words,[7],precipitates
same,complexing of Zn^2+ in words,[3],moderate
same,complexing of Ni^2+ in words,[4],moderate
same,complexing of Fe^3+ in words,[6],good
same,complexing of Fe^2+ in words,[8],moderate
[Al] [Al],Bio-availability (Invention),[9]; 60% EDTA 60% phosphoric acids,100%
same,Difference,[10]; [15],9931.3%
same,Bio-availability,[10]; [16],100%
"O=CC(=O)O [C2H2O3, oxoethanoic acid]",complexing of Cu^2+ in words,[1],in small amounts
same,complexing of Co^2+ in words,[2],somewhat more poorly
same,complexing of Ni^2+ in words,[4],somewhat more poorly
same,complexing of Fe^2+ in words,[8],somewhat more poorly
"N[C@@H](CS)C(=O)O [C3H7O2NS, Cysteine]",complexing of Co^2+ in words,[2],extremely well
same,complexing of Ni^2+ in words,[4],extremely well
"O=C(O)CNCP(=O)(O)O [C3H8O5NP, n-phosphomethylglicine]",effect on aromatic amino acid synthesis,[11],inhibits the aromatic amino acid synthesis
"N[C@@H](CC(=O)O)C(=O)O [C4H7O4N, Aspartic acid]",complexing of Cu^2+ in words,[1],very well
same,complexing of Zn^2+ in words,[3],very well
same,complexing of Ni^2+ in words,[4],very well
same,complexing of Al^3+ in words,[12],only moderately
"C[C@@H](O)[C@H](N)C(=O)O [C4H9O3N, Threonine]",complexing of Cu^2+ in words,[1],very well
same,complexing of Co^2+ in words,[2],good
same,complexing of Zn^2+ in words,[3],good
"O=C(O)c1cc(=O)[nH]c(=O)[nH]1 [C5H4O4N2, Orotic acid]",complexing of Cu^2+ in words,[1],able to complex
same,complexing of Co^2+ in words,[2],able to complex
same,complexing of Ni^2+ in words,[4],able to complex
"N[C@@H](CCC(=O)O)C(=O)O [C5H9O4N, Glutamic acid]",complexing of Cu^2+ in words,[1],very well
same,complexing of Zn^2+ in words,[3],not so well
same,complexing of Ni^2+ in words,[4],very well
"CC(C)[C@H](N)C(=O)O [C5H11O2N, valine]",complexing of Cu^2+ in words,[1],very well
same,complexing of Zn^2+ in words,[3],very well
same,complexing of Ni^2+ in words,[4],very well
"N[C@@H](Cc1c[nH]cn1)C(=O)O [C6H9O2N3, Histidine]",complexing of Cu^2+ in words,[1],very good
same,complexing of Co^2+ in words,[2],very good
same,complexing of Ca^2+ in words,[7],poor
same,complexing of Zn^2+ in words,[3],very good
same,complexing of Ni^2+ in words,[4],very good
same,complexing of Mn^2+ in words,[5],good
same,complexing of Al^3+ in words,[12],good
"O=C[C@H](O)[C@@H](O)[C@@H](O)[C@H](O)C(=O)O [C6H10O7, galacturonic acid]",complexing of Fe^2+ in words,[8],very well
"N[C@@H](CSSC[C@H](N)C(=O)O)C(=O)O [C6H12O4N2S2, cystine]",complexing of Cu^2+ in words,[1],excellent
same,complexing of Zn^2+ in words,[3],very well
same,complexing of Ni^2+ in words,[4],very well
"NCCCC[C@H](N)C(=O)O [C6H14O2N2, lysine]",complexing of Cu^2+ in words,[1],very good
same,complexing of Zn^2+ in words,[3],well
same,complexing of Ni^2+ in words,[4],very good
"N[C@@H](Cc1ccccc1)C(=O)O [C9H11O2N, phenylalanine]",complexing of Cu^2+ in words,[1],very good
same,complexing of Zn^2+ in words,[3],very good
"O=C(O)CN(CCN(CC(=O)O)CC(=O)O)CC(=O)O [C10H16O8N2, ethylenediaminetetraacetic acid]",precipitation in the presence of H2S,[13],no precipitation
same,complexing of Cu^2+ in words,[1],very well
same,complexing of Co^2+ in words,[2],very well
same,complexing of Mg^2+ in words,[14],well
same,complexing of Ca^2+ in words,[7],very well
same,complexing of Zn^2+ in words,[3],very well
same,complexing of Ni^2+ in words,[4],very well
same,complexing of Mn^2+ in words,[5],very well
same,complexing of Fe^3+ in words,[6],extremely well
same,complexing of Fe^2+ in words,[8],very well
"O=C(O)CS [CH2(SH)COOH, mercaptoacetic acid (thio-glycol acid)]",complexing of Co^2+ in words,[2],very good
same,complexing of Zn^2+ in words,[3],excellent
same,complexing of Mn^2+ in words,[5],good
same,complexing of Fe^3+ in words,[6],excellent
same,complexing of Fe^2+ in words,[8],very good
"CC(=O)CC(C)=O [CH3(C═O)CH2(C═O)CH3, acetylacetone]",complexing of Cu^2+ in words,[1],well
same,complexing of Co^2+ in words,[2],moderately well
same,complexing of Mg^2+ in words,[14],moderately well
same,complexing of Ni^2+ in words,[4],well
same,complexing of Mn^2+ in words,[5],moderately well
same,complexing of Al^3+ in words,[12],extremely well
same,complexing of Fe^3+ in words,[6],extremely well
same,complexing of Fe^2+ in words,[8],moderately well
"CC(=O)C(=O)O [CH3(C═O)COOH, oxopropionic acid (pyruvic acid, pyruvate)]",complexing of Cu^2+ in words,[1],in small amounts
same,complexing of Co^2+ in words,[2],somewhat more poorly
same,complexing of Ni^2+ in words,[4],somewhat more poorly
same,complexing of Fe^2+ in words,[8],somewhat more poorly
"CC(O)C(=O)O (stereo not shown) [CH3CH(OH)COOH, 2-hydroxypropionic acid (lactic acid)]",complexing of Cu^2+ in words,[1],in small amounts
same,complexing of Co^2+ in words,[2],somewhat more poorly
same,complexing of Ni^2+ in words,[4],somewhat more poorly
same,complexing of Fe^2+ in words,[8],somewhat more poorly
"[Ca+2] [Ca, calcium]",Bio-availability (Invention),[9],100%
same,Difference,[10]; [15],38.2%
same,Bio-availability,[10]; [16],100%
"[Co] [Co, cobalt]",Bio-availability (Invention),[9],100%
same,bio-availability in words,[10]; 50% NTA,hardly bio-available at all
same,Difference,[10]; [15],−100.0%
same,Bio-availability,[10]; [16],0%
"[Cu] [Cu, copper]",Bio-availability (Invention),[9]; 60% EDTA 60% phosphoric acids,0%
same,Difference,[10]; [15],−100.0%
same,Bio-availability,[10]; [16],0%
"O=C(O)CNCCNCC(=O)O [EDDA, Ethylendiimine diacetic acid]",complexing of Co^2+ in words,[2],very well
same,complexing of Zn^2+ in words,[3],very well
same,complexing of Mn^2+ in words,[5],well
"[Fe] [Fe, iron]",Bio-availability (Invention),[9]; 60% EDTA 60% phosphoric acids,100%
same,Difference,[10]; [15],4260.1%
same,Bio-availability,[10]; [16],100%
"OB(O)O [H3O3B, boric acid]",complexing of Mg^2+ in words,[14],only with difficulty
same,complexing of Ca^2+ in words,[7],only with difficulty
same,complexing of Fe^3+ in words,[6],very good
"O=P(O)(O)OP(=O)(O)O [H4P2O7, pyrophosphoric acid]",complexing of Mg^2+ in words,[14],very strongly
same,complexing of Mn^2+ in words,[5],very strongly
"O=C(O)CC(O)(CC(=O)O)C(=O)O [HOOCCH2C(OH)(COOH)CH2COOH, Citric acid]",complexing of Cu^2+ in words,[1],good
same,complexing of Co^2+ in words,[2],good
same,complexing of Ni^2+ in words,[4],good
same,complexing of Fe^3+ in words,[6],good
"O=C(O)CC(O)C(=O)O (stereo not shown) [HOOCCH2CH(OH)COOH, malic acid]",complexing of Al^3+ in words,[12],good
same,complexing of Fe^3+ in words,[6],good
"O=C(O)CC(S)C(=O)O (stereo not shown) [HOOCCH2CH(SH)COOH, Mercaptomalic acid]",complexing of Zn^2+ in words,[3],well
same,complexing of Ni^2+ in words,[4],well
CC(C)[C@H](N)C(=O)N[C@H](C(=O)O)C(C)C [L-valyl-L-valine] (H-Val-Val-OH),complexing of Ni^2+ in words,[4],very good
"[Mg+2] [Mg, magnesium]",Bio-availability (Invention),[9]; 60% EDTA 60% phosphoric acids,100%
same,Difference,[10]; [15],9698.1%
same,Bio-availability,[10]; [16],100%
"[Mn+2] [Mn, manganese]",Bio-availability (Invention),[9],100%
same,Bio-availability,[10],31%
same,Difference,[10],−99.2%
"[Ni] [Ni, nickel]",Bio-availability (Invention),[9],100%
same,Bio-availability,[10],0%
same,Difference,[10],−100.0%
same,available share of the added volume,[10],2 ppm
same,bio-availability in words,[10],hardly bio-available at all
"[Zn] [Zn, zinc]",Bio-availability (Invention),[9],100%
same,bio-availability in words,[10]; 50% NTA,hardly bio-available at all
same,Difference,[10]; [15],−100.0%
same,Bio-availability,[10]; [16],0%
meso-malic acid,complexing of Al^3+ in words,[12],good
same,complexing of Fe^3+ in words,[6],good
